Experimental data published in paper PMC9841431 (Nucleic Acids Research, 2022).

Assays:
[1] = test system: M. tuberculosis mrx2 KO mutant (Δmrx2); format: cell-based; settings: times higher
Mrx2 mutants = Mrx2 mutants (Mycobacterium tuberculosis, UniProt O53193, G95S); format: biochemical, M. tuberculosis

| SMILES | MIC of Δmrx2 relative to M. tuberculosis H37Rv [1] [times] | Activity of Mrx2G95S against the compound (Mrx2 mutants) |
| --- | --- | --- |
| COC(=O)c1ccc2c(ccc3oc([N+](=O)[O-])cc32)c1 [nNF-C4, Methyl 2-nitronaphtho[2,1-b]furan-7-carboxylate] | 16 | – |
| O=[N+]([O-])c1cc2cc3ccc4oc([N+](=O)[O-])cc4c3cc2o1 [nNF-C2, 2,8-Dinitronaphtho[2,1-b:7,6-b']difuran] | 8 | maintained its ability to metabolize |
